Reference: ChEMBL document CHEMBL1201862, “PubChem BioAssay data set” (2004)
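Each compound was tested at five concentrations against cells in 96-well plates for 48 hours. Abbreviation: GI50, concentration required for 50% inhibition of growth.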 Active and inactive are the calls of the source. Rule as the data show it: active = GI50 up to about 1.1 µM and inactive = higher.

What was measured:
Test in all cases: DTP human tumour cell line panel, 48 h
[1] = system: BT-549
[2] = system: HCC 2998
[3] = system: TK-10
[4] = system: CAKI-1
[5] = system: HOP-62
[6] = system: CCRF-CEM
[7] = system: HL-60
[8] = system: SK-OV-3
[9] = system: SR
[10] = system: EKVX
[11] = system: SNB-75
[12] = system: RPMI-8226
[13] = system: M14
[14] = system: HCT-116
[15] = system: KM12
[16] = system: K562
[17] = system: ACHN
[18] = system: A549
[19] = system: IGROV-1
[20] = system: LOX IMVI

Compound	GI50 [1]	GI50 [2]	GI50 [3]	GI50 [4]	GI50 [5]	GI50 [6]	GI50 [7]	GI50 [8]	GI50 [9]	GI50 [10]	GI50 [11]	GI50 [12]	GI50 [13]	GI50 [14]	GI50 [15]	GI50 [16]	GI50 [17]	GI50 [18]	GI50 [19]	GI50 [20]
O=C1OCC/C1=C/c1ccc(/N=N/c2c(O)ccc3ccccc23)cc1	23.2 µM (inactive)	20.9 µM (inactive)	19.9 µM (inactive)	19.7 µM (inactive)	21.9 µM (inactive)	22.9 µM (inactive)	22.6 µM (inactive)	28.3 µM (inactive)	15.2 µM (inactive)	19.1 µM (inactive)	24.8 µM (inactive)	21.6 µM (inactive)	27.5 µM (inactive)	17.6 µM (inactive)	5.11 µM (inactive)	28.6 µM (inactive)	17.5 µM (inactive)	18.6 µM (inactive)	25.8 µM (inactive)	
Nc1ccc(Oc2ccc(C3(c4ccc(Oc5ccc(N)cc5)cc4)C4CC5C6CC7CC5C3C(C7)C6C4)cc2)cc1	> 100 µM (inactive)	1.07 µM (active)	> 78 µM (inactive)	39 µM (inactive)	72.9 µM (inactive)	2.62 µM (inactive)	14 µM (inactive)		9.2 µM (inactive)	27 µM (inactive)	> 100 µM (inactive)	14.8 µM (inactive)	3.87 µM (inactive)	18.3 µM (inactive)	10.5 µM (inactive)	16 µM (inactive)	48.5 µM (inactive)	0.706 µM (active)	> 52.1 µM (inactive)	6.01 µM (inactive)
O=C(Nc1c(Cl)cc([N+](=O)[O-])cc1Cl)C(=O)C1C(=O)NC(=S)NC1=O	> 100 µM (inactive)	> 100 µM (inactive)	> 100 µM (inactive)	> 100 µM (inactive)	> 100 µM (inactive)	> 100 µM (inactive)	> 100 µM (inactive)	> 100 µM (inactive)	> 10 µM (inactive)	> 100 µM (inactive)	> 100 µM (inactive)	> 100 µM (inactive)	> 100 µM (inactive)	> 100 µM (inactive)	> 100 µM (inactive)	> 100 µM (inactive)	> 100 µM (inactive)	> 100 µM (inactive)	> 100 µM (inactive)	> 100 µM (inactive)
CC(=O)OC(CCC1(C)OC1COc1ccc(CCNC(=O)C=C(C)C)cc1)C(C)(C)OC(C)=O (centres undefined)	0.377 µM (active)	> 100 µM (inactive)	> 100 µM (inactive)	> 100 µM (inactive)	20 µM (inactive)	> 40.6 µM (inactive)	> 32.1 µM (inactive)	> 100 µM (inactive)	24.9 µM (inactive)	16.9 µM (inactive)	44.4 µM (inactive)	13.1 µM (inactive)	16.3 µM (inactive)	0.611 µM (active)	17.8 µM (inactive)		3.61 µM (inactive)	29.3 µM (inactive)	29.1 µM (inactive)	5.85 µM (inactive)
Nc1ccccc1CCCC(=O)O	> 100 µM (inactive)	> 100 µM (inactive)	> 100 µM (inactive)	> 100 µM (inactive)	> 100 µM (inactive)	> 100 µM (inactive)	45.4 µM (inactive)	> 100 µM (inactive)	> 100 µM (inactive)		> 100 µM (inactive)	> 100 µM (inactive)	> 100 µM (inactive)	> 100 µM (inactive)	> 100 µM (inactive)	> 100 µM (inactive)	> 100 µM (inactive)	> 100 µM (inactive)	> 100 µM (inactive)	> 100 µM (inactive)
NC(CCCCP(=O)(O)O)C(=O)O (centres undefined)	> 100 µM (inactive)	> 100 µM (inactive)	> 100 µM (inactive)	14.3 µM (inactive)		> 100 µM (inactive)	> 100 µM (inactive)	> 100 µM (inactive)	> 100 µM (inactive)	> 100 µM (inactive)	> 100 µM (inactive)	> 100 µM (inactive)	> 100 µM (inactive)	> 100 µM (inactive)	> 100 µM (inactive)	> 100 µM (inactive)	> 100 µM (inactive)	> 100 µM (inactive)	> 100 µM (inactive)	> 100 µM (inactive)
CN(C)CCNC(=O)c1cc([N+](=O)[O-])cc2c1Oc1ccccc1O2	35.5 µM (inactive)	3.79 µM (inactive)	23.7 µM (inactive)	15.6 µM (inactive)	22.5 µM (inactive)	17.8 µM (inactive)	18.9 µM (inactive)		11.7 µM (inactive)	56.1 µM (inactive)	13 µM (inactive)	18.6 µM (inactive)	31.5 µM (inactive)	7.33 µM (inactive)	31 µM (inactive)	23.2 µM (inactive)	6.46 µM (inactive)	13.5 µM (inactive)	23.4 µM (inactive)	12.9 µM (inactive)
